Measurements published in ChEMBL document CHEMBL1150495, “Balanced angiotensin II receptor antagonists. I. The effects of biphenyl ortho-substitution on AT1/AT2 affinities” (Bioorg Med Chem Lett, 1994).
pIC50: −log10 of the molar value.

What was measured:
[1] = system: Rattus norvegicus; assay: Reduction of blood pressure by 30 mmHg in renal hypertensive rats by intravenous administration; type: functional
[2] = molecular target: T1, Angiotensin II receptor (AT-1) type-1 (Rattus norvegicus, UniProt P29089+P25095); assay: Displacement of [125I]- Ang II from angiotensin II AT1 receptor in rat adrenal cortical microsomes; design: species or system Microsome
T1 sequence (P29089 whole entry): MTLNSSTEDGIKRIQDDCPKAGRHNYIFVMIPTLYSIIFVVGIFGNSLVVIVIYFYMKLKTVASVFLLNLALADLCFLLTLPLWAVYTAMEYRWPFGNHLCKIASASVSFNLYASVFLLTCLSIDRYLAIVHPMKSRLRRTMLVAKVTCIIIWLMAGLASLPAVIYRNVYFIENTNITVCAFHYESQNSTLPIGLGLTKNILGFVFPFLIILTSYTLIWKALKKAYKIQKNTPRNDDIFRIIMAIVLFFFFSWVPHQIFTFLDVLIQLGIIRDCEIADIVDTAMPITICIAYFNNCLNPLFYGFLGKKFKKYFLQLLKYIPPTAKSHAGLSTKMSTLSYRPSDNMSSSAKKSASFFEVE
T1 sequence (P25095 whole entry): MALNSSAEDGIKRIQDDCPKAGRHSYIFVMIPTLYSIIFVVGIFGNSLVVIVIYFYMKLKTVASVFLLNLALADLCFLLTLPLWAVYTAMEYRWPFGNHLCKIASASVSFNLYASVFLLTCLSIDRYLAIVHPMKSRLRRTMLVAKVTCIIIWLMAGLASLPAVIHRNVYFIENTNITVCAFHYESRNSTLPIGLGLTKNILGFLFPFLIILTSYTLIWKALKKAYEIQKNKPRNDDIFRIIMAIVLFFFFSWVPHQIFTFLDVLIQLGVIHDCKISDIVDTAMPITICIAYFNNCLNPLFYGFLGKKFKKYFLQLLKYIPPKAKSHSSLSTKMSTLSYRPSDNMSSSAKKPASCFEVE

[3] = molecular target: T2, Type-2 angiotensin II receptor (Rattus norvegicus, UniProt P35351); assay: Displacement of [125I]- Ang II from angiotensin II AT2 receptor in rat adrenal cortical microsomes; design: species or system Microsome
T2 sequence (P35351 whole entry): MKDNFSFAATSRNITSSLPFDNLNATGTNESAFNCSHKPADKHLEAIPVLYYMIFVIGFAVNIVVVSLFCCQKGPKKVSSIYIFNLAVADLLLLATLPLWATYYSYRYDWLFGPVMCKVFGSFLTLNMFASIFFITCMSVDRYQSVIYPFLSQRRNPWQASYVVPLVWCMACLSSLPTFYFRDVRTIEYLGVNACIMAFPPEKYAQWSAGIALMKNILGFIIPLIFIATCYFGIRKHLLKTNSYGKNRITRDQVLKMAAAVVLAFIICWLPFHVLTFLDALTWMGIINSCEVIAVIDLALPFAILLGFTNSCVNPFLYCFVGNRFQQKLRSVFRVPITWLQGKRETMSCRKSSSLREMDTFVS

[4] = system: Rattus norvegicus; assay: Duration required to lower blood pressure by 30 mmHg in renal hypertensive rats at a dose of 3.0 mg/kg; type: functional
[5] = system: Rattus norvegicus; assay: Effective dose to lower blood pressure by 30 mmHg in renal hypertensive rats by peroral administration; type: functional; conditions: po
[6] = molecular target: Angiotensin II receptor (Homo sapiens) (UniProt P30556+P50052); assay: Affinity towards angiotensin receptor was expressed as the ratio of Angiotensin II AT2 receptor over Angiotensin II AT1 receptor; type: protein assay
[7] = molecular target: T2, Type-2 angiotensin II receptor; assay: Compound was tested for the inhibition of angiotensin II AT2 receptor by displacement of [125I]- Ang II to rat adrenal cortical microsomes

| Compound | IC50 [2] | pIC50 [3] | Ratio [6] | pIC50 [7] | ED30 [1] | Duration [4] | ED30 [5] |
| --- | --- | --- | --- | --- | --- | --- | --- |
| CCCc1nc(CC)c(C=O)n1Cc1ccc(-c2ccccc2-c2nn[nH]n2)cc1Cl | 10 nM | 6.30 |  |  | 0.87 mg/kg |  |  |
| CCCCOC(=O)NS(=O)(=O)c1ccccc1-c1ccc(Cn2c(CCC)nc(CC)c2C(=O)OC)cc1 | 2 nM | 7.40 |  |  |  |  |  |
| CCCc1nc(CC)c(C(=O)OC)n1Cc1ccc(-c2ccccc2S(=O)(=O)NC(=O)OCCC(C)C)cc1F |  | 9.00 | 1 |  | 0.12 mg/kg | >24 h | 0.67 mg/kg |
| CCCCOC(=O)NS(=O)(=O)c1ccccc1-c1ccc(Cn2c(CCC)nc(CC)c2C=O)c(C)c1 | 3 nM | 8.05 |  |  | 0.23 mg/kg |  | 0.86 mg/kg |
| CCCCOC(=O)NS(=O)(=O)c1ccccc1-c1ccc(Cn2c(CCC)nc(CC)c2C(C)=O)cc1 | 2 nM | 7.10 |  |  | 0.26 mg/kg |  | 0.25 mg/kg |
| CCCCOC(=O)NS(=O)(=O)c1ccccc1-c1ccc(Cn2c(CCC)nc(CC)c2C(C)=O)c(Cl)c1 | 6 nM | 7.92 |  |  | 0.11 mg/kg |  | 0.96 mg/kg |
| CCCCOC(=O)NS(=O)(=O)c1ccccc1-c1ccc(Cn2c(CCC)nc(CC)c2C=O)c(F)c1 | 0.7 nM | 8.70 |  |  | 0.13 mg/kg |  | < 1 mg/kg |
| CCCc1nc(C(F)(F)C(F)(F)F)c(C(=O)O)n1Cc1ccc(-c2ccccc2-c2nn[nH]n2)cc1 | 3 nM | < 5.00 |  |  |  |  |  |
| CCCCOC(=O)NS(=O)(=O)c1ccccc1-c1ccc(Cn2c(CCC)nc(CC)c2C(=O)OC)c(F)c1 | 0.6 nM | 8.40 |  |  | 0.11 mg/kg |  | < 0.3 mg/kg |
| CCCNC(=O)NS(=O)(=O)c1ccccc1-c1ccc(Cn2c(CCC)nc(SC)c2C(=O)O)cc1 | 0.3 nM | 6.11 |  |  |  |  |  |
| CCCCOC(=O)NS(=O)(=O)c1ccccc1-c1ccc(Cn2c(CCC)nc(CC)c2C(=O)OC)c([N+](=O)[O-])c1 | 7 nM | 7.70 |  |  |  |  |  |
| CCCCOC(=O)NS(=O)(=O)c1ccccc1-c1ccc(Cn2c(CCC)nc(CC)c2C(C)=O)c(C)c1 | 2 nM | 7.70 |  |  | 0.24 mg/kg |  | 0.55 mg/kg |
| CCCc1nc(C(F)(F)C(F)(F)F)c(C(=O)O)n1Cc1ccc(-c2ccccc2-c2nn[nH]n2)cc1Br |  |  |  | 7.10 |  |  |  |
| CCCCOC(=O)NS(=O)(=O)c1ccccc1-c1ccc(Cn2c(CCC)nc(CC)c2C(=O)OC)c(Cl)c1 |  | 8.15 | 2.3 |  | 0.51 mg/kg | >24 h | 0.44 mg/kg |
| CCCc1nc(CC)c(C=O)n1Cc1ccc(-c2ccccc2-c2nn[nH]n2)cc1Br | 20 nM | 6.15 |  |  | 1.05 mg/kg |  |  |
| CCCCOC(=O)NS(=O)(=O)c1ccccc1-c1ccc(Cn2c(CCC)nc(CC)c2C(C)=O)c(F)c1 |  | 8.52 | 3 |  | 0.1 mg/kg | >24 h | 0.48 mg/kg |

Now from value to molecule, other results behind:

| IC50 [2] | pIC50 [3] | Ratio [6] | pIC50 [7] | Compound | ED30 [1] | Duration [4] | ED30 [5] |
| --- | --- | --- | --- | --- | --- | --- | --- |
| 2 nM | 7.70 |  |  | CCCCOC(=O)NS(=O)(=O)c1ccccc1-c1ccc(Cn2c(CCC)nc(CC)c2C(=O)OC)c(Br)c1 |  |  |  |
| 40 nM | 6.00 |  |  | CCCc1nc(CC)c(C=O)n1Cc1ccc(-c2ccccc2-c2nn[nH]n2)cc1C | 1.4 mg/kg |  |  |
| 2 nM | 8.00 |  |  | CCCCOC(=O)NS(=O)(=O)c1ccccc1-c1ccc(Cn2c(CCC)nc(CC)c2C=O)cc1 | 0.23 mg/kg |  | 0.18 mg/kg |
| 2 nM | < 5.00 |  |  | CCCc1nc(CC)c(C=O)n1Cc1ccc(-c2ccccc2-c2nn[nH]n2)cc1 | 0.04 mg/kg |  |  |
| 3 nM | 8.00 |  |  | CCCCOC(=O)NS(=O)(=O)c1ccccc1-c1ccc(Cn2c(CCC)nc(CC)c2C(=O)OC)c(C)c1 | 0.15 mg/kg |  | 0.56 mg/kg |
| 2.4 nM | 6.30 |  |  | CCCc1nc(CC)c(C=O)n1Cc1ccc(-c2ccccc2S(=O)(=O)NC(=O)c2ccccc2)cc1 |  |  |  |
| 7 nM | 5.52 |  |  | CCCc1nc(CC)c(C=O)n1Cc1ccc(-c2ccccc2-c2nn[nH]n2)cc1F | 0.17 mg/kg |  |  |
